{
  "source": "patent US6271369A",
  "about": "“Chimeric molecules targeted to viral RNAs” (priority 1997, dated 2001)",
  "key": {"[1]": {"tested_on": "TAR:vif RNA", "test": "Cleavage of control TAR:vif RNA (no oligo(rA) tract) in Daudi cell extract", "type": "biochemical, HIV-1", "details": "0.2 or 1.0 μM", "text": "To determine the ability of the 2-5A:AS chimeric molecule SEQ ID NO:1 to induce site-directed RNA cleavage, a target RNA was constructed having an internal 3',5'-oligo(rA) tract. Hybridization between the (dT18) in SEQ ID NO:1 with the oligo(rA) in the target RNA attracts 2-5A-dependent RNase to the target RNA, resulting in a highly specific cleavage event. The experimental target, TAR:A25 :vif RNA, was produced in vitro from a pSP64-derived plasmid containing a partial cDNA for the HIV vif protein interrupted with 25 adenylyl residues. A control TAR:vif RNA was constructed with the A25 tract deleted. These RNA species, which lack 3'-poly(rA) tails, were radiolabeled at their 3'-termini with [5'-^32 p)-pCp by T4 RNA ligase and gel purified prior to the assay. […]\nDaudi cell extracts prepared with dounce homogenization were made by the well known method of Wreschner, et al. in a buffer containing 40mM KCl; 10 mM HEPES pH 7.5; 2.5mM magnesium acetate; 0.5mM ATP; 2.5% glycerol and 2.0mM mercaptoethanol. […] Cleavage products were analyzed in 6% polyacrylamide/8M urea gels (30×40×0.04cm).\nThis property of the 2-5A:AS molecule was determined by experiments employing unmodified 2-5A. […]"}, "[2]": {"tested_on": "2-5A-dependent RNase", "test": "Radiobinding (nitrocellulose filter) competition assay for 2-5A-dependent RNase in mouse liver extract", "type": "binding", "protocol": "SEQ ID NO:1, SEQ ID NO:2, Chimeric Molecule 3, and Chimeric Molecule 4 were tested for their ability to bind to 2-5A-dependent RNase in vitro. The affinity of these 2-5A:AS constructs for 2-5A-dependent RNase was established with a highly specific radiobinding assay. This radiobinding assay measured the ability of 2-5A or 2-5A analogs to compete with a ^32 P-labeled 2-5A probe, ppp5'A2'p5'A2'p5'A2'p5'A3'-[^32 p]p5'C3'p, for binding to 2-5A-dependent RNase. The nitrocellulose filter binding assay of Knight et al. (Methods Enzymol. , 79: 216 (1981)) was used to measure the concentrations of 2-5A or the chimeric 2-5A:AS molecule required to compete with the radiolabeled probe, ppp5'A2'-p5'A2'p5'A2'p5A3'[^32 P]p5C3'p, for binding to 2-5A-dependentRNase in a mouse liver extract.\nFIGS. 3A and 3B show the relative affinities of SEQ ID NO:1 (.tangle-solidup.) and 2-5A (ppp5'A2'p5'A2'p5'A) (.circle-solid.) for 2-5A-dependent RNase. A measure of 100% binding was found in the absence of any unlabeled oligonucleotide. The data for SEQ ID NO:1 and 2-5A in these figures represent the means and standard deviations from 6 and 7 assays, respectively."}},
  "data": [
    {"substance": "p5'A2'(p5'A2')2 P5'A2'p1[OCH2 (CH2)2 CH2 O]4p1[OCH2 (CH2)2 CH2 O]4p5'pdT3'(p5'dt3')16 p5'dt (AAAATTTTTTTTTTTTTTTTTT; chemistry not fully specified) [SEQ ID NO:1]", "values": [
      {"measurement": "specific cleavage in TAR:vif RNA lacking the oligo(rA) tract", "setting": "[1]", "value": "failed to yield a specific cleavage"},
      {"measurement": "IC50 / ability to bind 2-5A-dependent RNase compared with unmodified 2-5A", "setting": "[2]; compared with ppp5'A2'p5'A2'p5'A, FIG. 3A", "value": "very little, if any, decrease in the IC50"},
      {"measurement": "binding affinity to 2-5A-dependent RNase when annealed to complementary sequence", "setting": "[2]; mixed with excess poly(A), FIG. 3B", "value": "no significant change in the binding affinity"}
    ]}
  ]
}
